What was measured:
Type in all cases: in vivo
[1] = system: barnyardgrass (Echinochloa crus-galli, ECHCG); experiment: Pre-emerge test, greenhouse herbicide activity screening; settings: rating scale 0-100, 14 days after application
Method in brief: (§1)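 Compounds in acetone were track-sprayed at 187 l/ha, 15–1000 g ai/ha, onto sandy loam pots. Pre-emerge seeds were sown one day before spraying, with surface watering afterwards. Post-emerge plants were at the 2–3 leaf stage and sprayed with 0.25% v/v non-ionic surfactant. Injury was rated 0–100 at 14 days.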

[2] = system: johnsongrass (Sorghum halepense, SORHA); experiment: as above; settings: rating scale 0-100, 14 days after application
Method in brief: as §1

[3] = system: ivyleaf morningglory (Ipomoea hederacea, IPOHE); experiment: as above; settings: rating scale 0-100, 14 days after application
Method in brief: as §1

[4] = system: large crabgrass (Digitaria sanguinalis, DIGSA); experiment: as above; settings: rating scale 0-100, 14 days after application
Method in brief: as §1

[5] = system: sicklepod (Cassia obtusifolia, CASOB); experiment: as above; settings: rating scale 0-100, 14 days after application
Method in brief: as §1

[6] = system: velvetleaf (Abutilon theophrasti, ABUTH); experiment: as above; settings: rating scale 0-100, 14 days after application
Method in brief: as §1

[7] = system: green foxtail (Setaria viridis, SETVI); experiment: as above; settings: rating scale 0-100, 14 days after application
Method in brief: as §1

[8] = system: lambsquarters (Chenopodium album, CHEAL); experiment: as above; settings: rating scale 0-100, 14 days after application
Method in brief: as §1

[9] = system: redroot pigweed (Amaranthus retroflexus, AMARE); experiment: as above; settings: rating scale 0-100, 14 days after application
Method in brief: as §1

[10] = system: field corn (Zea mays L., var. Dekalb 535, CORN); experiment: Post-emerge test, crop safety; settings: rating scale 0-100 (0 no damage, 100 complete death), 14 days after application
Method in brief: as §1

[11] = system: upland rice (Oryza sp., var. Tebonnet, RICE); experiment: Post-emerge test, crop safety; settings: rating scale 0-100 (0 no damage, 100 complete death), 14 days after application
Method in brief: as §1

[12] = system: barnyardgrass (Echinochloa crus-galli, ECHCG); experiment: Post-emerge test, greenhouse herbicide activity screening; settings: rating scale 0-100 (0 no damage, 100 complete death), 14 days after application
Method in brief: (§2)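 Applied at 15–1000 g ai/ha from acetone in 187 l/ha spray volume. Post-emergence applications included 0.25% v/v non-ionic surfactant and reached plants sown 8–21 days before. Pre-emergence applications were incorporated by surface watering. Efficacy or crop damage was rated on a 0–100 scale after 14 days.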

[13] = system: common ragweed (Ambrosia artemisizfolia L., AMBEL); experiment: as above; settings: rating scale 0-100 (0 no damage, 100 complete death), 14 days after application
Method in brief: as §2

[14] = system: johnsongrass (Sorghum halepense, SORHA); experiment: as above; settings: rating scale 0-100 (0 no damage, 100 complete death), 14 days after application
Method in brief: as §2

[15] = system: ivyleaf morningglory (Ipomoea hederacea, IPOHE); experiment: as above; settings: rating scale 0-100 (0 no damage, 100 complete death), 14 days after application
Method in brief: as §2

[16] = system: large crabgrass (Digitaria sanguinalis, DIGSA); experiment: as above; settings: rating scale 0-100 (0 no damage, 100 complete death), 14 days after application
Method in brief: as §2

[17] = system: sicklepod (Cassia obtusifolia, CASOB); experiment: as above; settings: rating scale 0-100 (0 no damage, 100 complete death), 14 days after application
Method in brief: as §2

[18] = system: redroot pigweed (Amaranthus retroflexus, AMARE); experiment: as above; settings: rating scale 0-100 (0 no damage, 100 complete death), 14 days after application
Method in brief: as §2

[19] = system: velvetleaf (Abutilon theophrasti, ABUTH); experiment: as above; settings: rating scale 0-100 (0 no damage, 100 complete death), 14 days after application
Method in brief: as §2

[20] = system: green foxtail (Setaria viridis, SETVI); experiment: as above; settings: rating scale 0-100 (0 no damage, 100 complete death), 14 days after application
Method in brief: as §2

[21] = system: lambsquarters (Chenopodium album, CHEAL); experiment: as above; settings: rating scale 0-100 (0 no damage, 100 complete death), 14 days after application
Method in brief: as §2

[22] = system: field corn (Zea mays L., var. Dekalb 535, CORN); experiment: Pre-emerge test, crop safety; settings: rating scale 0-100, 14 days after application
Method in brief: as §2

[23] = system: upland rice (Oryza sp., var. Tebonnet, RICE); experiment: Pre-emerge test, crop safety; settings: rating scale 0-100, 14 days after application
Method in brief: as §2

## COc1c(Cl)cc(F)c(-n2c(=O)cc(C(F)(F)F)n(C)c2=O)c1CC(Cl)C(=O)OCC(F)(F)C(F)F (stereo not shown) [14-22]
[1]; 63 g ai/ha
  Pre-emerge herbicidal activity, phytotoxicity rating ECHCG: 0
[1]; 250 g ai/ha
  Pre-emerge herbicidal activity, phytotoxicity rating ECHCG: 0
[2]; 63 g ai/ha
  Pre-emerge herbicidal activity, phytotoxicity rating SORHA: 0
[2]; 250 g ai/ha
  Pre-emerge herbicidal activity, phytotoxicity rating SORHA: 0
[3]; 63 g ai/ha
  Pre-emerge herbicidal activity, phytotoxicity rating IPOHE: 0
[3]; 250 g ai/ha
  Pre-emerge herbicidal activity, phytotoxicity rating IPOHE: 0
[4]; 63 g ai/ha
  Pre-emerge herbicidal activity, phytotoxicity rating DIGSA: 0
[4]; 250 g ai/ha
  Pre-emerge herbicidal activity, phytotoxicity rating DIGSA: 50
[5]; 63 g ai/ha
  Pre-emerge herbicidal activity, phytotoxicity rating CASOB: 0
[5]; 250 g ai/ha
  Pre-emerge herbicidal activity, phytotoxicity rating CASOB: 0
[6]; 63 g ai/ha
  Pre-emerge herbicidal activity, phytotoxicity rating ABUTH: 0
[6]; 250 g ai/ha
  Pre-emerge herbicidal activity, phytotoxicity rating ABUTH: 70
[7]; 63 g ai/ha
  Pre-emerge herbicidal activity, phytotoxicity rating SETVI: 0
[7]; 250 g ai/ha
  Pre-emerge herbicidal activity, phytotoxicity rating SETVI: 0
[8]; 63 g ai/ha
  Pre-emerge herbicidal activity, phytotoxicity rating CHEAL: 20
[8]; 250 g ai/ha
  Pre-emerge herbicidal activity, phytotoxicity rating CHEAL: 90
[9]; 63 g ai/ha
  Pre-emerge herbicidal activity, phytotoxicity rating AMARE: 100
[9]; 250 g ai/ha
  Pre-emerge herbicidal activity, phytotoxicity rating AMARE: 100
[10]; Rate 63 g ai/ha
  Post-emerge phytotoxicity rating CORN (crop damage): 10
[10]; Rate 250 g ai/ha
  Post-emerge phytotoxicity rating CORN (crop damage): 50
[11]; Rate 63 g ai/ha
  Post-emerge phytotoxicity rating RICE (crop damage): 0
[11]; Rate 250 g ai/ha
  Post-emerge phytotoxicity rating RICE (crop damage): 10
[12]; Rate 63 g ai/ha
  Post-emerge Herbicidal Activity, phytotoxicity rating ECHCG: 100
[12]; Rate 250 g ai/ha
  Post-emerge Herbicidal Activity, phytotoxicity rating ECHCG: 100
[13]; Rate 63 g ai/ha
  Post-emerge Herbicidal Activity, phytotoxicity rating AMBEL: 100
[13]; Rate 250 g ai/ha
  Post-emerge Herbicidal Activity, phytotoxicity rating AMBEL: 100
[14]; Rate 63 g ai/ha
  Post-emerge Herbicidal Activity, phytotoxicity rating SORHA: 40
[14]; Rate 250 g ai/ha
  Post-emerge Herbicidal Activity, phytotoxicity rating SORHA: 60
[15]; Rate 63 g ai/ha
  Post-emerge Herbicidal Activity, phytotoxicity rating IPOHE: 10
[15]; Rate 250 g ai/ha
  Post-emerge Herbicidal Activity, phytotoxicity rating IPOHE: 80
[16]; Rate 63 g ai/ha
  Post-emerge Herbicidal Activity, phytotoxicity rating DIGSA: 80
[16]; Rate 250 g ai/ha
  Post-emerge Herbicidal Activity, phytotoxicity rating DIGSA: 95
[17]; Rate 63 g ai/ha
  Post-emerge Herbicidal Activity, phytotoxicity rating CASOB: 0
[17]; Rate 250 g ai/ha
  Post-emerge Herbicidal Activity, phytotoxicity rating CASOB: 50
[18]; Rate 63 g ai/ha
  Post-emerge Herbicidal Activity, phytotoxicity rating AMARE: 50
[18]; Rate 250 g ai/ha
  Post-emerge Herbicidal Activity, phytotoxicity rating AMARE: 100
[19]; Rate 63 g ai/ha
  Post-emerge Herbicidal Activity, phytotoxicity rating ABUTH: 30
[19]; Rate 250 g ai/ha
  Post-emerge Herbicidal Activity, phytotoxicity rating ABUTH: 100
[20]; Rate 63 g ai/ha
  Post-emerge Herbicidal Activity, phytotoxicity rating SETVI: 30
[20]; Rate 250 g ai/ha
  Post-emerge Herbicidal Activity, phytotoxicity rating SETVI: 60
[21]; Rate 63 g ai/ha
  Post-emerge Herbicidal Activity, phytotoxicity rating CHEAL: 50
[21]; Rate 250 g ai/ha
  Post-emerge Herbicidal Activity, phytotoxicity rating CHEAL: 90
[22]; 63 g ai/ha
  Pre-emerge phytotoxicity rating, crop damage CORN: 0
[22]; 250 g ai/ha
  Pre-emerge phytotoxicity rating, crop damage CORN: 0
[23]; 63 g ai/ha
  Pre-emerge phytotoxicity rating, crop damage RICE: 0
[23]; 250 g ai/ha
  Pre-emerge phytotoxicity rating, crop damage RICE: 10

Reference: US6355799B1, “Substituted benzene compounds, process for their preparation, and herbicidal and defoliant compositions containing them” (ISK Americas Incorporated, priority 1997, dated 2002)
